From patent publication US7579180B2, “Beta secretase polypeptides” (Amgen Inc., priority 1999, dated 2009) come the findings set out here.

Data set [1] has as its target T1, human beta-secretase-Fc fusion (Homo sapiens, UniProt P56817).
T1 construct: A plasmid containing cDNA encoding amino acids 1-460 of beta-secretase fused to the Fc portion of human IgG; made in house; host or cells: human embryonic kidney 293T cells, stably transfected; purified from conditioned medium on protein A
Briefly: Beta-secretase activity assay: cleavage of DNP-labeled APP peptides, HPLC. In kind it is biochemical. To be noted: peptide substrate 20 μM, pH 5.0, about 6 hours, room temperature; FIG. 11. The protocol: FIG. 11 is a graph depicting the ability of human beta-secretase-Fc fusion to cleave various APP peptides. The X-axis is the amount of enzyme in the reaction mixture and the Y-axis is the amount of cleavage (denoted as pmol product formed) of each of three substrate peptides. “Sw” refers to the APP peptide with the Swedish mutation; “Wt” refers to wild type APP peptide; and “MV” refers to a mutated APP peptide.
Recombinant native as well as mutant beta secretase polypeptides were assayed for activity by measuring the ability of the molecule to cleave various A-beta peptides.
Each assay was conducted as follows. […] Quenched reactions were analyzed by HPLC on a 5 μm, C18 reversed-phase column (Sephasil Peptide, 4.6×100 mm; Amersham Pharmacia Biotech, Piscataway, N.J.) using first a linear gradient of 18-31.5 percent acetonitrile in 0.1 percent TFA over 40 minutes, then 31.5-81 percent acetonitrile for 1 minute, then 81 percent acetonitrile for 4 minutes, and then returning to 18-percent acetonitrile for several minutes to reequilibrate the column. […] Proteolysis of the Sw and WT octapeptides was evaluated using a linear gradient of 27-37.8 percent acetonitrile over 24 minutes on the same column.
Both product and substrate were monitored by absorbance at 360 nm. […]
The concentration of standard was determined from the extinction coefficient of DNP (e365nm=16 mM^−1cm^−1). […]

Data set [2] has as its system 293T-APPsw101 cell line. Briefly: Assay for the 42 amino acid form of A-beta in medium of transfected cells. The format is cell-based, human. To be noted: Single Clone. How it is done:
(§1) A duplicate of each master cDNA 96 well plate was prepared. Each well of the duplicate plate contained about 75 microliters of Optimem I medium (Life Technologies Inc, Gaithersburg, Md.) and about 300 ng of cDNA library. About 75 microliters of a mixture of 12 microliters DMRIE-C Lipid per ml of Optimem I medium (Life Technologies Inc., Gaithersburg, Md.) was added to each well of the 96 well plate using a Multipette (Sagian Inc. Indianapolis, Ind.) robotic pipettor. The DMRIE C was allowed to complex for about 30 minutes. Meanwhile, the media was removed from a 96 well dish in which each well had been plated with about 15,000 cells/well of the 293T-APPsw 101 cell line two days before. About 125 microliters of the DNA/Lipid complex was added to each well of cells. The cells containing the DNA/lipid mixture were then incubated at 37 degrees C., 5 percent CO2 for about five hours. After incubation, 125 μl Optimem I supplemented with 20 percent FBS and 2× Penicillin/Streptomycin (0.1 unit/ml Penicillin, 0.1 μg/ml Streptomycin) (Life Technologies Inc., Gaithersburg, Md.) was added to stop the transfection. […] The medium from each well was then harvested, diluted 1:1 in Superblock (Pierce Inc., Rockford, Ill.), stamped into pre-coated ELISA plates and analyzed for the presence of A-beta as described below. […]

The subject of data set [3] is 293T-APPsw101 cell line. Briefly: Assay for total beta amyloid peptide in medium of transfected cells. The format is cell-based, human. To be noted: Single Clone; diluted 1:10 into pCMVi vector DNA; average of duplicate transfections. The protocol: as §1

T1 sequence (P56817 with tags, fused parts or gaps limits assumed): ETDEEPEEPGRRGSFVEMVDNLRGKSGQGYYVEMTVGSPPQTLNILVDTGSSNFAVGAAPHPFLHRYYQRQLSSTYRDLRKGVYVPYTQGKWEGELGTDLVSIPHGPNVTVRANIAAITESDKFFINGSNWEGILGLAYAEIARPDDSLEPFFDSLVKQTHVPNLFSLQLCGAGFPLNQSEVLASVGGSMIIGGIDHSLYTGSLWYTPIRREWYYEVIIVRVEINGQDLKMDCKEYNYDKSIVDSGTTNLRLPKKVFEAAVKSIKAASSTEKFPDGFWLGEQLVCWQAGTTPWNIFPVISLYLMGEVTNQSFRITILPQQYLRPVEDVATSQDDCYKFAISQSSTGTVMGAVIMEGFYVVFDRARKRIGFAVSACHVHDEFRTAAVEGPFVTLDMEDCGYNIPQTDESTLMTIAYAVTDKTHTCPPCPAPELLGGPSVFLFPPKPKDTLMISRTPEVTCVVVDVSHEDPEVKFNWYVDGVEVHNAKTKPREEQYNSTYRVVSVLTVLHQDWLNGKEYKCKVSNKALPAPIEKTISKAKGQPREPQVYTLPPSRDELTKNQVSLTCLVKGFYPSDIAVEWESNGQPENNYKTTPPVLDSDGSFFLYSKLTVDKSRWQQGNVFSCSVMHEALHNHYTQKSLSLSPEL

As to EVNLDAEF [Sw], in data set [1], the “cleavage of substrate peptide (pmol product formed), preference by the enzyme” value is reported as “clearly preferred by the enzyme over the wild type (Wt) substrate”.
Take EVKMDAEF [Wt]: in data set [1], the “cleavage of substrate peptide (pmol product formed), preference by the enzyme” value was “preferred over the methionine to valine mutant (MV) substrate”.
Take “Single Clone (β-Secretase): single cDNA clone from pool A-11 encoding human beta-secretase (SEQ ID NO:1)”: in data set [2], the “A-beta 42/Total” value came to 1.1. Moreover, the “A-beta 42” value in data set [2] (diluted 1:10 into pCMVi vector DNA, average of duplicate transfections) is 327,505 total Europium counts. In addition, in data set [3], the Total is listed as 295,438 total Europium counts.
